Data as given in patent publication US20200190062A1, “HETEROCYCLIC COMPOUND AND PHARMACEUTICAL COMPOSITION COMPRISING SAME” (BEYONDBIO INC., priority 2015, published 2020).
Where two headings read alike, the source gives them in different places.

Columns and labels:
A549 = assay: Inhibition of cancer cell proliferation (MTT); type: cell-based, human; conditions: Homo sapiens, A549, 72 h
How it was run: (§1)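 Absorbance at 535 nm of DMSO-dissolved formazan (2 h MTT) gives viability versus 0.08% DMSO-treated cells, and GI50 is derived from eight concentrations between 0.004 and 10 uM. Exposure lasts 72 h at 37 °C, 5% CO2, using 3000 cells/well in 10% FBS medium ([…] for NCI-H23, otherwise DMEM).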

HCT116 = assay: Inhibition of cancer cell proliferation (MTT); type: cell-based, human
NCI-H23 = assay: Inhibition of cancer cell proliferation (MTT); type: cell-based, human; conditions: Homo sapiens, NCI-H23, 72 h
How it was run: as §1

U-87MG = assay: Inhibition of cancer cell proliferation (MTT); type: cell-based, human
How it was run: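 Growth inhibition over 72 h was measured in attached cultures (3000 per well) with 0.08% DMSO as the control. Viable cells were detected with a 2 h MTT step, and the concentration giving 50% inhibition was taken as GI50.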

T98G = assay: Inhibition of cancer cell proliferation (MTT); type: cell-based, human
How it was run: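 Plate 3000 cells/well and let them adhere for 16 h. Add compound (0.004, 0.013, 0.04, 0.12, 0.37, 1.1, 3.3, 10 uM; 0.08% DMSO) and culture for 72 h. Add MTT for 2 h, dissolve formazan in DMSO, read at 535 nm, and fit GI50.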

CDK1/cyclinB = target: T1, CDK1/cyclinB (Homo sapiens, UniProt P06493); assay: Inhibition of CDK enzyme activity (ADP-Glo kinase assay); type: biochemical; conditions: 10 uM ATP, histone H1 substrate
T1 construct: purchased Merck Millipore
Description: (§2) Test compounds were prepared by dissolving the compounds obtained in the above Examples in dimethylsulfoxide (DMSO) at a concentration of 10 mM. The test compounds were diluted to 200 nM, 50 nM, […], 3.13 nM, 0.78 nM, and 0.2 nM and used in an enzyme reaction.
(§3) CDK enzyme reaction was conducted in a buffer containing 50 mM Tris-HCl (pH 7.5), 10 mM MgCl2, 1 mM EGTA, 1 mM EDTA, and 2 mM DTT. CDK1/cyclinB, CDK2/cylcinE, CDK5/p25, and CDK6/cyclinD3 enzymes commercially available from Merck Millipore were used for CDK1, CDK2, CDK5, and CDK6 enzymes, respectively, and CDK4/cyclinD1 enzyme commercially available from Signalchem (US) was used for CDK4. For CDK1, a reaction proceeded by adding 10 nM CDK1/cyclinB and 0.125 mg/ml histone H1 (Merck Millipore) substrate to the buffer and then adding 10 uM ATP thereto. For CDK2, a reaction was proceeded by adding 10 nM CDK2/cyclinE and 0.125 mg/ml histone H1 substrate to the buffer and then adding 10 uM ATP thereto. For CDK5, a reaction was proceeded by adding 10 nM CDK5/p25 and 0.125 mg/ml histone H1 substrate to the buffer and then adding 10 uM ATP thereto. For CDK4, a reaction was proceeded by adding 20 nM CDK4/cyclinD1 and 0.125 mg/ml Rb protein (Merck Millipore) to the buffer and then adding 10 uM ATP thereto. For CDK6, a reaction was proceeded by adding 50 nM CDK6/cyclinD3 and 0.125 mg/ml histone H1 substrate to the buffer and then adding 10 uM ATP thereto. Each enzyme reaction was incubated at 30° C. for 60 min. Then, the amount of ADP produced was measured using Victor X4 instrument (Perkin Elmer) after generating luminescence using ADP-Glo kinase assay kit (Promega, US). An inhibition effect on each enzyme was represented as a percentage of the luminescence value in the presence of the test compounds relative to the luminescence value without the test compounds. IC50 (nM) is the concentration of the compound to inhibit 50% of the enzyme activity.

CDK2/cyclinE = target: T2, CDK2/cyclinE (Homo sapiens, UniProt P24941); assay: as above; type: biochemical; conditions: 10 uM ATP, histone H1 substrate
T2 construct: purchased Merck Millipore
Description: as §2, §3

CDK5/p25 = target: T3, CDK5/p25 (Homo sapiens, UniProt Q00535); assay: as above; type: biochemical; conditions: 10 uM ATP, histone H1 substrate
T3 construct: purchased Merck Millipore
Description: as §2, §3

[1] = Blood brain barrier permeation; type: in vivo, ICR mice; conditions: mouse, oral once 10 mg/kg, 10 mg/kg; for concentration at 1 h / concentration at 4 h / Kp at 1 h / Kp at 4 h: male, ICR, po; for Kp at 1 h / Kp at 4 h: brain/plasma, read-out: B/P ratio
Description: Using 9-week-old male ICR mice, the compounds obtained in the above Examples were orally administered once at a dose of 10 mg/kg or 30 mg/kg, and after 1 hr and 4 hrs, the concentrations of the compounds in the blood and brain of the mice were determined. 3 ICR mice were assigned in each group. Plasma was separated from the blood obtained after sacrificing the mice at each time, the brain of the mice was extracted, and the […] was washed with PBS, followed by pulverizing the brain tissue. The blood was placed in a test tube containing heparin to prevent coagulation and then was centrifuged at 12,000 rpm at 4° C. for 3 min to give a supernatant from which plasma was collected. Brain tissue was weighed, and the brain was pulverized using Dounce's homogenizer after adding 3 times as much volume of PBS as the brain weight. Each of the obtained analytical samples was quantitatively analyzed using a tandem liquid chromatography-mass spectrometer (Tandem LC/MS/MS, API3000 & Agilent 1100 series). Brain permeability of a compound is expressed as a value obtained by dividing the concentration of the compound in the brain by the concentration of the compound in the plasma (B/P ratio), and when the B/P ratio is greater than 1, it means that the concentration in the brain is higher than the one in the blood.

Aβ (amyloid β protein) = assay: Inhibition of Aβ generation in B103/APP cells (Aβ42 ELISA); type: cell-based; conditions: Rattus norvegicus, 72 hrs
Description: The APP gene was inserted into B103 cells so that APP could be stably expressed and the resulting B103/APP cells were used to confirm inhibition of APP phosphorylation and Aβ generation.
Further, to confirm whether Aβ generation is reduced due to APP phosphorylation inhibition, 5×10^5 B103/APP cells were cultured in a 6-well plate for 16 hrs. Afterwards, the compounds obtained in the above Examples were added at 100 nM, 75 nM, 50 nM, 25 nM, 12.5 nM to a medium containing 500 ug/ml of G418 and 0.5% FBS and incubated for 72 hrs. After 72 hrs, the amount of Aβ was quantified using the medium by Human Aβ42 ELISA kit (Invitrogen).

SH-SY5Y = assay: Inhibition of cancer cell proliferation (MTT); type: cell-based, human
How it was run: as §1

SK-N-SH = assay: Inhibition of cancer cell proliferation (MTT); type: cell-based, human
How it was run: as §1

CDK6/cyclinD3 = target: T4, CDK6/cyclinD3 (Homo sapiens, UniProt Q00534); assay: Inhibition of CDK enzyme activity (ADP-Glo kinase assay); type: biochemical; conditions: 10 uM ATP, histone H1 substrate; read-out: IC50 CDK6/cyclinD
T4 construct: purchased Merck Millipore
Description: as §2, §3

CDK4/cyclinD1 = target: T5, CDK4/cyclinD1 (Homo sapiens, UniProt P11802); assay: as above; type: biochemical; conditions: 10 uM ATP, Rb protein substrate; read-out: IC50 CDK4/cyclinD
T5 construct: purchased Signalchem (US)
Description: as §2, §3

[2] = test system: Human colon carcinoma HCT116 cell line; assay: Tumor growth inhibition in an animal model (HCT116 xenograft); type: in vivo, Balb/c nude mouse; conditions: 100 mpk, oral daily for 12 days
Description: Tumor size was measured twice a week using Caliper. […] A vehicle control was 20% propylene glycol (PG) and a positive control was Xeloda at 100 mg/kg.

[3] = brain, 1 hr, read-out: Concentration in the brain
[4] = plasma, 1 hr, read-out: Concentration in the plasma

T3 sequence (Q00535 whole entry): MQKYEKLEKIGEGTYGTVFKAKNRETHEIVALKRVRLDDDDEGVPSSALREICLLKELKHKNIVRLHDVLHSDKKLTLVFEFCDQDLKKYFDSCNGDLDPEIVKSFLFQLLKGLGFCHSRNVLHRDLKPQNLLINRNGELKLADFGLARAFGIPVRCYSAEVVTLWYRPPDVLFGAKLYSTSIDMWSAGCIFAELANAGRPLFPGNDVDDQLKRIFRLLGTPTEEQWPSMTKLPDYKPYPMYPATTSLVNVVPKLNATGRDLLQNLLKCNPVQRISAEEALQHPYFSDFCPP
T3 sequence (Q15078 99-307 partner limits assumed): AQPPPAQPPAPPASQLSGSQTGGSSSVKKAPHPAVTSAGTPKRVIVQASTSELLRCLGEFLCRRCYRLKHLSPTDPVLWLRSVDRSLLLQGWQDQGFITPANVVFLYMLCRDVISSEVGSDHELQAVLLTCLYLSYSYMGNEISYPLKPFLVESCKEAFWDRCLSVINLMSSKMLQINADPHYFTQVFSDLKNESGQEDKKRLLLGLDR
T1 sequence (P06493 whole entry): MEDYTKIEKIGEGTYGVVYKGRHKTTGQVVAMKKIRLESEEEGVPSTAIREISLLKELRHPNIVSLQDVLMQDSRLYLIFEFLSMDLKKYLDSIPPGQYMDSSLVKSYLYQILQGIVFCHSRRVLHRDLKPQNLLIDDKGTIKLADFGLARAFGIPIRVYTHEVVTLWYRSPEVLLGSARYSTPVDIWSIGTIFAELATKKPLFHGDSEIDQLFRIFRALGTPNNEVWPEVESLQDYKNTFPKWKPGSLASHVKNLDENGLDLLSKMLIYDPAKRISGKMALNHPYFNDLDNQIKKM
T1 sequence (P14635 whole entry partner): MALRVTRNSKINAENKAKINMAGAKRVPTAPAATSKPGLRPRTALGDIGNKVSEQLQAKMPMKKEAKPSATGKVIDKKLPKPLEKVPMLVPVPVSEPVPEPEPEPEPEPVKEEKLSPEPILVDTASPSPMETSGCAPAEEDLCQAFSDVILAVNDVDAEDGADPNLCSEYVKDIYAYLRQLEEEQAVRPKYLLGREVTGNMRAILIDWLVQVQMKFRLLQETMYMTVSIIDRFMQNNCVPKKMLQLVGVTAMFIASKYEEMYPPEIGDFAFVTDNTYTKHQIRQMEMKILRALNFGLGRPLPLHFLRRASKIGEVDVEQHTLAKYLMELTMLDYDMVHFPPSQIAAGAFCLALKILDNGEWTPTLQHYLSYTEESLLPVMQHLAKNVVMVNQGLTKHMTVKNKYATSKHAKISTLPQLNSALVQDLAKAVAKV
T4 sequence (Q00534 whole entry): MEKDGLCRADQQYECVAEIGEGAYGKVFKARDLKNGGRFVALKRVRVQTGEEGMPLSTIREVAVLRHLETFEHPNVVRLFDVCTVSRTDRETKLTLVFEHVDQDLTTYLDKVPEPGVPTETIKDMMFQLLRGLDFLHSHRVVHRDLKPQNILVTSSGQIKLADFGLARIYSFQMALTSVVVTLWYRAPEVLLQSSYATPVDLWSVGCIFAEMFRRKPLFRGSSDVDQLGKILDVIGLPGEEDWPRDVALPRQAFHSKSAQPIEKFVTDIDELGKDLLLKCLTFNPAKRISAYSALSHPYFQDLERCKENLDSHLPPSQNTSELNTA
T4 sequence (P30281 whole entry partner): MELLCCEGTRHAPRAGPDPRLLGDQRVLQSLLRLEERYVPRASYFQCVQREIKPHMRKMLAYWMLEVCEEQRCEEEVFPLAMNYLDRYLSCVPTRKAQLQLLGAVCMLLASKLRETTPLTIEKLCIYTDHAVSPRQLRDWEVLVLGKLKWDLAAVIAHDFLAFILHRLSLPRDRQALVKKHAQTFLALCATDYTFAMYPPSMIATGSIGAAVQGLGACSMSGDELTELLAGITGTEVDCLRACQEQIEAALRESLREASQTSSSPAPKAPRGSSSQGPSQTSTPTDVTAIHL
T5 sequence (P11802 whole entry): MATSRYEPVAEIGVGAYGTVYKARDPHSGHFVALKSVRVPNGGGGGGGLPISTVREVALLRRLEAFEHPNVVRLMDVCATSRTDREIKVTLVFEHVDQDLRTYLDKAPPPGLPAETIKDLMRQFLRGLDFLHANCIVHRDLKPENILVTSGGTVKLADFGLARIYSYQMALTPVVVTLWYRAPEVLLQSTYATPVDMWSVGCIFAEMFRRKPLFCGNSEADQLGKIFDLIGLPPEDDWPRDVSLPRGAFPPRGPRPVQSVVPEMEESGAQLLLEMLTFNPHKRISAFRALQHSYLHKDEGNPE
T5 sequence (P24385 whole entry partner): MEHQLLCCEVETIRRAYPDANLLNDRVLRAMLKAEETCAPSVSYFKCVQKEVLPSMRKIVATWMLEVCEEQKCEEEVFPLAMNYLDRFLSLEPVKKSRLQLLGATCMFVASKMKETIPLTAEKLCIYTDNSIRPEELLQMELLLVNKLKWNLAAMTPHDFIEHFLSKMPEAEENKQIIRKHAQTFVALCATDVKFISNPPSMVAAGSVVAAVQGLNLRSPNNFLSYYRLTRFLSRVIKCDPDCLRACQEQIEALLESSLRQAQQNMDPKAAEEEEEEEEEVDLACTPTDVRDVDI

| Compound | IC50 (CDK1/cyclinB) [µM] | IC50 (CDK2/cyclinE) [µM] | IC50 (CDK5/p25) [µM] | GI50 (SH-SY5Y; Homo sapiens, SH-SY5Y, 72 h) [µM] | GI50 (HCT116; Homo sapiens, HCT-116, 72 h) [µM] | GI50 (SK-N-SH; Homo sapiens, SK-N-SH, 72 h) [µM] | GI50 (U-87MG; Homo sapiens, U-87 MG, 72 h) [µM] | IC50 (CDK6/cyclinD3) [µM] | IC50 (CDK4/cyclinD1) [µM] | further results |
| --- | --- | --- | --- | --- | --- | --- | --- | --- | --- | --- |
| Nc1nccc(-c2nc(-c3ccnc(N)c3F)ccc2O)n1 [Example 66] | 0.0006 | 0.001 | 0.0003 |  |  |  |  |  |  | GI50 (A549): 0.03 µM; GI50 (HCT116; 72 hrs): 0.01 µM; GI50 (NCI-H23): 0.03 µM; GI50 (U-87MG; 72 hrs): 0.02 µM; GI50 (T98G; 72 hrs): 0.03 µM; B/P ratio ([1]; 1 hr): 2.44; Concentration in the brain ([1]; 1 hr): 80.5 ng/g; Concentration in the plasma ([1]; 1 hr): 32.9 ng/mL; B/P ratio ([1]; 4 hrs): 2.93; Concentration in the brain ([1]; 4 hrs): 58.9 ng/g; Concentration in the plasma ([1]; 4 hrs): 20.1 ng/mL; inhibition at 0.0125 µM (Aβ (amyloid β protein); 12.5 nM): 36.6%; inhibition at 0.025 µM (Aβ (amyloid β protein); 25 nM): 46.6%; inhibition at 0.05 µM (Aβ (amyloid β protein); 50 nM): 75.9%; inhibition at 0.075 µM (Aβ (amyloid β protein); 75 nM): 100%; inhibition at 0.1 µM (Aβ (amyloid β protein); 100 nM): 100% |
| Nc1nccc(-c2nc(-c3cccc(N)c3F)ccc2O)n1 [Example 18, 6-(3-amino-2-fluorophenyl)-2-(2-aminopyrimidin-4-yl)pyridin-3-ol] | 0.0268 | 0.0107 | 0.0061 | 0.2 | 0.34 | 0.78 | 5.86 | 0.181 | > 0.2 |  |
| Nc1nccc(-c2nc(-c3ccc(O)cc3F)ccc2O)n1 [Example 17, 2-(2-aminopyrimidin-4-yl)-6-(2-fluoro-4-hydroxyphenyl)pyridin-3-ol] | 0.0308 | 0.0094 | 0.0033 | 0.29 | 0.61 | 0.84 | 1.7 | 0.0653 | > 0.2 |  |
| Nc1nccc(-c2nc(-c3ccnc(N)c3O)ccc2O)n1 [Example 21, 2′-amino-6-(2-aminopyrimidin-4-yl)-[2,4′-bipyridin]-3′,5-diol] | 0.0061 | 0.0045 | 0.0015 | 0.11 | 0.14 | 0.31 | 0.89 | 0.0736 | 0.403 |  |
| Nc1nccc(-c2nc(-c3ccc(O)cc3)ccc2O)n1 [Example 9, 2-(2-aminopyrimidin-4-yl)-6-(4-hydroxyphenyl)pyridin-3-ol] | 0.0116 | 0.0064 | 0.0023 | 0.09 | 0.2 | 0.2 | 0.63 | 0.0448 | 0.287 |  |
| CCCCCOC(=O)Nc1nc(=O)n([C@@H]2O[C@H](C)[C@@H](O)[C@H]2O)cc1F [Xeloda, reference compound] |  |  |  |  |  |  |  |  |  | Tumor size [2]: 994.7 ± 405.5 mm^3; tumor growth inhibition ([2]; vs vehicle control): 46% |
| Nc1nccc(-c2nc(-c3ccncc3)ccc2O)n1 [Example 12, 6-(2-aminopyrimidin-4-yl)-[2,4′-bipyridin]-5-ol] | 0.0126 | 0.0066 | 0.0059 | 0.24 | 0.23 | 0.42 | 0.79 | 0.0507 | > 0.2 | GI50 (T98G; Homo sapiens, T98G, 72 h): 1.83 µM; concentration at 1 h [1, 3]: 71.1 ng/g; concentration at 4 h ([1]; brain, 4 hrs, read-out: Concentration in the brain): 9.1 ng/g; Kp at 1 h ([1]; 1 hr): 4.1; Kp at 4 h ([1]; 4 hrs): 3.54; concentration at 1 h [1, 4]: 17.3 ng/mL; concentration at 4 h ([1]; plasma, 4 hrs, read-out: Concentration in the plasma): 2.6 ng/mL |
| Nc1nccc(-c2nc(-c3ccc(O)c(F)c3)ccc2O)n1 [Example 19, 2-(2-aminopyrimidin-4-yl)-6-(3-fluoro-4-hydroxyphenyl)pyridin-3-ol] | 0.0196 | 0.0146 | 0.0064 | 0.12 | 0.46 | 0.21 | 0.44 | 0.129 | > 0.2 | GI50 (T98G; Homo sapiens, T98G, 72 h): 2.61 µM |
| Nc1nccc(-c2nc(-c3ccnc(N)c3F)ccc2O)n1 [Example 67, 2′-amino-6-(2-aminopyrimidin-4-yl)-3′-fluoro-[2,4′-bipyridin]-5-ol acetate] |  |  |  |  |  |  |  |  |  | GI50 (SH-SY5Y; 72 hrs): 0.01 µM; GI50 (HCT116; 72 hrs): 0.01 µM; GI50 (SK-N-SH; 72 hrs): 0.02 µM; GI50 (U-87MG; 72 hrs): 0.09 µM; concentration at 1 h [1, 3]: 55.1 ng/g; Kp at 1 h ([1]; 1 hr): 2.21; Kp at 4 h ([1]; 4 hrs): 3.97; concentration at 1 h [1, 4]: 24.9 ng/mL; Concentration in the brain ([1]; 4 hrs): 15.5 ng/g; Concentration in the plasma ([1]; 4 hrs): 3.9 ng/mL |
